Data reported in patent US6673937B2, “Syntheses and methods of use of new antimitotic agents” (The University of Pittsburgh, priority 2000, dated 2004).
Like-named read-outs stand apart in the source and are kept apart here.

How the values were obtained:
MDA-MB-231 cells = assay: Antiproliferative assay, MDA-MB-231 cells; type: cell-based, human; settings: 72 hours; for IC50: read-out: MDA-MB-231 50% cell growth inhibition; for sensitivity of MDA-MB-231 cells, in words: FIG. 23 Panel B
Description: MDA-MB-231 cells, which were also derived from an adenocarcinoma of the breast, are less differentiated than the MCF-7 cells and fail to express functional p53 or estrogen receptors. This class of tumor cells contains important targets for new therapies, because loss of estrogen receptor expression is associated with poor patient prognosis. (Osborne, C. K. Breast Cane. Res. Treatm. 1998, 51, 227).
The inventors extrapolated to determine the IC50 for compounds with little cytotoxicity at 30,μM, the highest concentration tested. […] The enhanced sensitivity of MCF-7 to these compounds may be due to the expression of p53 in these cells.
Two compounds, 24 referred to herein as SR-4 and 27 referred to herein as SR-7, were examined in greater detail as to their effects on biological activity. The proliferation of MCF-7, MDA-MB-231 and SV40 transformed mouse embryonic fibroblasts was measured by a previously described colorimetric assay (Wipf P, Jung J-K, Rodriguez S, Lazo JS Synthesis and biological evaluation of Deoxypreussomerin A and Palmarumycin CP 1 and related naphthoquinone spiroketals. Tetrahedron 57:283-296, 2001 and Vogt A, Rice RL, Settineri CE, Yokokawa F, Yokokawa S, Wipf P and Lazo JS (1998) Disruption of insulin-like growth factor-I signaling and down-regulation of Cdc2 by SC-ααδ9, a novel small molecule antisignaling agent identified in a targeted array library. J Pharmacol Exptl Therap 287:806-813.). Briefly, the inventors seeded 4,000-6,000 cells per well in microtiter plates. Cells were allowed to attach overnight and treated with vehicle or compounds for 72 h, after which the medium was replaced with serum free medium containing 0.1% 3-[4,5-dimethylthiazol-2-yl]-2,5-diphenyl tetrazolium bromide. Plates were incubated for 3 hours in the dark and total cell number was determined by spectrophotometrically at 540 nm as previously described (Vogt A, Rice RL, Settineri CE, Yokokawa F, Yokokawa S, Wipf P and Lazo JS (1998) Disruption of insulin-like growth factor-1 signaling and down-regulation of Cdc2 by SC-ααδ9, a novel small molecule antisignaling agent identified in a targeted array library. J Pharmacol Exptl Therap 287:806-813.). […] Cells were maintained in RPMI 1640 medium containing 10% fetal bovine serum and the paclitaxel-resistant cells also contained 17 nM paclitaxel and 10 μM verapamil. Cells were plated (2,000/well) in 96-well plates and allowed to attach and grow for 72 hours (paclitaxel and verapamil were removed from resistant cell medium two weeks prior to this plating). They were then treated with 0.5% DMSO vehicle control or 0.08-10 μM compound. The number of cells was determined spectrophotometrically at 490 nm minus absorbance at 630 nm after exposure to 3-(4,5-dimethylthiazol-2-yl)-5-(3-carboxymethoxyphenyl)-2-(4-sulfophenyl)-2H-tetrazolium and N-methyldibenzopyurazine methyl sulfate.
Because of the potential importance of the tumor suppressor gene p53 and the estrogen receptor in controlling the cellular response to cytotoxic agents, the inventors also examined the sensitivity of MDA-MB-231 cells, which lack functional p53 and estrogen receptors. […] As might be expected, these p53 and estrogen receptor deficient cells were generally less sensitive to both natural products and analogs when compared to MCF-7 cells.

Trx-1/TrxR = target: T1, Trx-1/TrxR (Homo sapiens, UniProt P10599+Q16881); assay: Trx-1/TrxR-dependent insulin reducing assay; type: biochemical; settings: for IC50: calculated from 5 concentrations (0.1 to 50 μM)
T1 construct: Thioredoxin reductase was purified from human placenta as previously described; made in house
T1 sequence (P10599 1-105): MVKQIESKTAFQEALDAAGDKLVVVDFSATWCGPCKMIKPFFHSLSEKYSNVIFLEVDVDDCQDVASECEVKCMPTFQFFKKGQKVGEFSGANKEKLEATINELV
T1 sequence (Q16881 1-499 isoform Q16881-5): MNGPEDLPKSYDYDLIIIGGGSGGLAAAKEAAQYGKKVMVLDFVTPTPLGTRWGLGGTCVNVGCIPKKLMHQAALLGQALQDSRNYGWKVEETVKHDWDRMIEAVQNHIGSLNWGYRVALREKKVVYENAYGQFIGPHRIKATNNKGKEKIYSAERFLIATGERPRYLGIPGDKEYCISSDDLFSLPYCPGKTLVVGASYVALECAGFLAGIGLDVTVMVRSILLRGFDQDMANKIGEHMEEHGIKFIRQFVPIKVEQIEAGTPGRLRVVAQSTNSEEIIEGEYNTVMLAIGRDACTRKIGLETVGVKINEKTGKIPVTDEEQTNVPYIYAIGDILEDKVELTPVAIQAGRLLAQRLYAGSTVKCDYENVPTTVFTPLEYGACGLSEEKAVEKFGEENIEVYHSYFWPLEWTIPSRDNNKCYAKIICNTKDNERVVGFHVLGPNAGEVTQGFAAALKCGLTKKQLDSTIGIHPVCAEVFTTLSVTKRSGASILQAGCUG
Procedure: Thioredoxin reductase was purified from human placenta as previously described (Oblong, J.E.; Gasdaska, P.Y.; Sherrill, K.; Powis,G. Biochemistry 1993, 32, 7271) and recombinant human Trx-1 was prepared as previously described (Gasdaska, P.Y.; Oblong, J.E.; Cotgreave, I.A.; Powis,G. Biochem.Biophys.Acta 1994 ,1218 ,292). TrxR and Trx-1/TrxR activities were measured spectrophotometrically using previously published microtiter plate colorimetric assays, based on the increase in absorbance at 405 nm which occurs as dithionitrobenzoic acid (DTNB) is reduced by the enzyme-mediated transfer of reducing equivalents from NADPH (Gasdaska et al., Biochem.Biophys.Acta 1994 ,1218,292). Trx-1/TrxR-dependent insulin reducing activity was measured in an incubation with a final volume of 60 μL containing 100 mM HEPES buffer, pH 7.2,5 mM EDTA (HE buffer),1 mM NADPH, […],0.8 μM Trx-1 and 2.5 mg/mL bovine insulin. Incubations were for 30 min at 37 ° C. in flat-bottom 96-well microtiter plates. The reaction was stopped by the addition of 100 μL of 6 M guanidine-HC1, 50 mM Tris, pH 8.0, and 10 mM DTNB, and the absorbance measured to 405 nm. TrxR activity was measured in a final incubation volume of 60 μL containing HE buffer, 10 mM DTNB, 1.0 μM TrxR and 1 mM NADPH. Compounds were diluted in HE buffer and added to the wells as 20 μL aliquots, and TrxR was then added,also as 20 μL aliquots in HE buffer. To start the reaction NADPH and DTNB were added as a 20 μL aliquot in HE buffer and the plate was moved to the plate reader which had been preheated to 37 ° C. The optical density at 405 nm was measured every 10 s and initial reaction rates were measured.

| Structure (SMILES) | IC50 (MDA-MB-231 cells; Homo sapiens, MDA-MB-231) [µM] | IC50 (Trx-1/TrxR) [µM] | further results |
| --- | --- | --- | --- |
| COc1ccc(COc2cccc3c2C(=O)C=CC32Oc3cccc4cccc(c34)O2)cc1 [TH-39, 8-(4-methoxy-benzyloxy)-1-oxo-1,4-dihydronaphthalene4-spiro-2-naphto [1,8-de][1, 3]dioxin] | 2.2 | > 50 | – |
| O=C1C=CC2(Oc3cccc4cccc(c34)O2)c2cccc(OCc3ccccn3)c21 [SR-11, 8-(pyridin-2-ylmethoxy)-1-oxo-1,4-dihydronaphthalene-4-spiro-2′-naphto [1″,8″-de][1′,3′] dioxin] | 2.8 | 41.8 | – |
| O=C1C=CC2(Oc3cccc4cccc(c34)O2)c2cccc(OCc3ccco3)c21 [SR-7, 8-(furan-2-ylmethoxy)-1-oxo-1,4-dihydronaphthalene-4-spiro-2′-naphto [1″,8″-de][1′,3′] dioxin] | 2.5 | > 50 | sensitivity of MDA-MB-231 cells, in words (MDA-MB-231 cells): equally sensitive |
| C=CCOc1cccc2c1C(=O)C=CC21Oc2cccc3cccc(c23)O1 [SR-14, 8-allyloxy-1-oxo-1,4-dihydronaphthalene-4-spiro-2′-naphto [1″,8″-de][1′,3′] dioxin] | 2.7 | 23.2 | – |
| COc1cccc2c1C(=O)C=CC21OCCCO1 [TH-223] | – | 40.2 | IC50 (MDA-MB-231 cells): 5 µM; Trx-1/TrxR inhibition, in words (Trx-1/TrxR): practically inactive |
| O=C1C=CC2(Oc3cccc4cccc(c34)O2)c2cccc(OC/C=C/c3ccccc3)c21 [SR-1, (E)-8-(3-phenyl-allyloxy)-1-oxo-1,4-dihydronaphthalene-4-spiro-2′-naphto[1″, 8″-de] [1′,3′] dioxin] | 7.5 | > 50 | – |
| O=C1C=CC2(Oc3cccc4cccc(c34)O2)c2cccc(OCc3ccncc3)c21 [SR-13, 8-(pyridin-4-ylmethoxy)-1-oxo-1,4-dihydronaphthalene-4-spiro-2′-naphtol [1″,8″-de][1′,3′] dioxin] | 7.3 | > 50 | – |
| O=C1C=CC2(Oc3cccc4cccc(c34)O2)c2cccc(OCCc3ccccc3)c21 [SR-6, 8-(2-phenyl-ethoxy)-1-oxo-1,4-dihydronaphthalene-4-spiro-2′-naphto [1″,8″-de][1′,3′] dioxin] | 4.6 | > 50 | – |
| O=C1C=CC2(OCCO2)c2cccc(O)c21 [TH-169] | 4.3 | 3.4 | Trx-1/TrxR inhibition, in words (Trx-1/TrxR): maintains significant activity; fold less active than palmarumycin CP1 on Trx-1/TrxR (Trx-1/TrxR): approximately 10 fold; selectivity for Trx-1 over TrxR (Trx-1/TrxR): approximately 2 fold |
| O=C1C=CC2(Oc3cccc4cccc(c34)O2)c2cccc(O)c21 [palmarumycin CP1, 8-hydroxy-1-oxo-1,4-dihydronaphthalene-4-spiro-2′-naphtho[1″,8″-de] [1′,3′] dioxin, reference compound] | 2.4 | 0.35 | sensitivity of MDA-MB-231 cells, in words (MDA-MB-231 cells): equally sensitive; selectivity for Trx-1 over TrxR (Trx-1/TrxR): > 30 fold |
| O=C1C=CC2(Oc3cccc4cccc(c34)O2)c2cccc(OCc3cccnc3)c21 [SR-12, 8-(pyridin-3-ylmethoxy)-1-oxo-1,4-dihydronaphthalene-4-spiro-2′-naphto [1″,8″-de][1′,3′] dioxin] | 1.4 | > 50 | – |
| COc1cccc(COc2cccc3c2C(=O)C=CC32Oc3cccc4cccc(c34)O2)c1 [SR-5, 8-(3-methoxy-benzyloxy)-1-oxo-1,4-dihydronaphthalene-4-spiro-2′-naphto [1″,8″-de][1′,3′] dioxin] | 2.7 | > 50 | – |
| CC(C)=CCC/C(C)=C/COc1cccc2c1C(=O)C=CC21Oc2cccc3cccc(c23)O1 [SR-9, (E,E)-8-(3,7-diemthyl-octa-2,6-dienyloxy)-1-oxo-1,4-dihydronaphthalene-4-spiro-2′-naphtol [1″,8″-de][1′,3′] dioxin] | 2 | > 50 | – |
| O=C1C=CC2(Oc3cccc4cccc(c34)O2)c2cccc(OCc3ccoc3)c21 [SR-10, 8-(furan-3-ylmethoxy)-1-oxo-1,4-dihydronaphthalene-4-spiro-2′-naphto [1′,8′-de][1′,3′] dioxin] | 2 | 23.2 | – |
| CCCCCCOc1cccc2c1C(=O)C=CC21Oc2cccc3cccc(c23)O1 [SR-3, 8-hexyloxy-1-oxo-1,4-dihydronaphthalene-4-spiro-2′-naphto [1″,8″-de] [1′,3′] dioxin] | 13.6 | > 50 | – |
| C/C=C/COc1cccc2c1C(=O)C=CC21Oc2cccc3cccc(c23)O1 [SR-2, (E)-8-(but-2-enyloxy)-1-oxo-1,4-dihydronaphthalene-4-spiro-2′-naphto [1″,8″-de][1′,3′]dioxin] | 2.9 | > 50 | – |
